Measurements from paper PMC9182007, “Statistical Methods in the Study of Protein Binding and Its Relationship to Drug Bioavailability in Breast Milk” (Molecules, 2022).
Where two headings read alike, the source gives them in different places.

Legend:
[1] = biological target: T1, bovine serum albumin (BSA) (Bos taurus, UniProt P02769); test: NP TLC on plates impregnated with bovine serum albumin; type: binding; settings: Table S3, NP plate impregnated with 2 mg/mL BSA; pH 7.4 mobile phase
T1 construct: purchased Sigma Aldrich
From the text: Chromatographic descriptors were obtained in experiments, thin layer chromatography in normal (NP TLC) and reversed mode (RP TLC). The stationary phase was modified with bovine serum albumin (BSA). TLC was the source of retention factor (Rf) values, denoted in statistical models as NP and RP.
(§1) For TLC chromatography, glass plates 20 × 20 cm from Merck, covered with silica gel with the addition of a fluorescent indicator, were used. Normal phase (NP) plates were used with standard Merck TLC Silica gel 60 F254 plates, while in reverse phase (RP) silanized plates RP-2: Merck TLC Silica gel 60 RP-2 F254 were used.
The stationary phase of the plates, both NP and RP, was modified with an aqueous solution of bovine serum albumin purchased from Sigma Aldrich (bovine serum albumin, lyophilized powder).
The impregnation of the plates was carried out with a 2 mg/mL solution applied to the surface using a Desaga SG 1 hand sprayer; the plates were then air dried. […] Normal and reversed phase thin layer chromatography (NP TLC and RP TLC respectively) was performed using silica-gel-coated glass plates. Half of them were covered with 2 mg/mL bovine serum albumin solution and half remained pure.
(§2) The mobility of the compounds was also determined on the plates with no protein as a modifier. […] The acetate buffer (20 mM) was prepared by dissolving 1.54 g of ammonium acetate in 1 L of distilled water. The pH was then adjusted with a concentrated ammonia solution using a pH meter. The plates were developed in standard, vertical chromatographic chambers, each time using 100 mL of the mobile phase, after the chamber was previously saturated with solvent vapors for approximately 1 h.
(§3) The unfolded-protein-impregnated plates and the control plates were scanned with a Desaga CD 60 densitometer. The values of the delay factor (Rf) were collected, i.e., the ratio of the distance traveled by the substance to be analyzed to the distance traveled through the front of the mobile phase. […] The experiment was repeated (for both BSA-coated and control plates) and the Rf values pooled are the mean of both series of experiments.

[2] = NP TLC on non-impregnated control plates; type: physicochemical; settings: Table S3, non-impregnated NP plate; acetonitrile/acetate buffer pH 7.4/methanol 60:20:20
Method: as §1
(§4) Normal and reversed phase thin layer chromatography (NP TLC and RP TLC respectively) was performed using silica-gel-coated glass plates. Half of them were covered with 2 mg/mL bovine serum albumin solution and half remained pure.
as §2, §3

[3] = HPLC on immobilized artificial membrane column (HPLCIAM); type: physicochemical; settings: for log k IAM: Table S5, IAM column, pH 7.4; for k IAM: Table S5, retention factor, IAM column, phosphate buffer pH 7.4/acetonitrile 80:20
[4] = biological target: T2, human serum albumin (HSA) (Homo sapiens, UniProt P02768); settings: for log k HSA: human, immobilized hsa column
[5] = source not stated, cited from earlier work
[6] = Table S1, coded 1/0; ref DrugBank [7]; cited from earlier work
[7] = biological target: T1, bovine serum albumin (BSA); test: RP TLC on plates impregnated with bovine serum albumin; type: binding; settings: Table S4, RP plate impregnated with 2 mg/mL BSA; pH 7.4 mobile phase
[8] = RP TLC on non-impregnated control plates; type: physicochemical; settings: Table S4, non-impregnated RP plate; acetonitrile/acetate buffer pH 7.4/methanol 60:20:20
Method: as §1, §4, §2, §3

[9] = tested on: plasma protein; settings: ref DrugBank [7], cited from earlier work
[10] = Milk-to-plasma (M/P) drug concentration ratio obtained in vivo, from literature; design: species or system human; settings: Table S1, scale of drug penetration into milk 1-4
[11] = biological target: T2, human serum albumin (HSA); test: in vitro; settings: immobilized hsa column, pH 7.4
[12] = Table S1, milk/plasma drug concentration ratio, in vivo; cited from earlier work
[13] = Table S5, retention factor, HSA column, pH 7.4, 25 degrees Celsius
[14] = Table S1, plasma protein binding given as fraction

T2 sequence (P02768 25-609): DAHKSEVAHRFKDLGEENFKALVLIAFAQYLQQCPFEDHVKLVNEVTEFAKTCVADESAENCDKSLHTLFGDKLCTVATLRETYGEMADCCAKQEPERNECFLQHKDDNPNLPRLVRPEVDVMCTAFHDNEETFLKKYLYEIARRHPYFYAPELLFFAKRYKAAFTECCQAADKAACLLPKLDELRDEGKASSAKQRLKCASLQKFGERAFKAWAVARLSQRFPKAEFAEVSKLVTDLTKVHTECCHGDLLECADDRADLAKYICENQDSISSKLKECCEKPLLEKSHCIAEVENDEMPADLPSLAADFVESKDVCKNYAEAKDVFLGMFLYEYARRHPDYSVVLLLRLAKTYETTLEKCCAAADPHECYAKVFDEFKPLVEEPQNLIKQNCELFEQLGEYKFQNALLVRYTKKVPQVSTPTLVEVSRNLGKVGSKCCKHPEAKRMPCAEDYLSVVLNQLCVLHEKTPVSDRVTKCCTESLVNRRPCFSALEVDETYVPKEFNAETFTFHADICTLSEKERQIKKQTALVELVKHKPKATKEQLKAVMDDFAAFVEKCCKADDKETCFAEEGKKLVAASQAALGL
T1 sequence (P02769 25-607): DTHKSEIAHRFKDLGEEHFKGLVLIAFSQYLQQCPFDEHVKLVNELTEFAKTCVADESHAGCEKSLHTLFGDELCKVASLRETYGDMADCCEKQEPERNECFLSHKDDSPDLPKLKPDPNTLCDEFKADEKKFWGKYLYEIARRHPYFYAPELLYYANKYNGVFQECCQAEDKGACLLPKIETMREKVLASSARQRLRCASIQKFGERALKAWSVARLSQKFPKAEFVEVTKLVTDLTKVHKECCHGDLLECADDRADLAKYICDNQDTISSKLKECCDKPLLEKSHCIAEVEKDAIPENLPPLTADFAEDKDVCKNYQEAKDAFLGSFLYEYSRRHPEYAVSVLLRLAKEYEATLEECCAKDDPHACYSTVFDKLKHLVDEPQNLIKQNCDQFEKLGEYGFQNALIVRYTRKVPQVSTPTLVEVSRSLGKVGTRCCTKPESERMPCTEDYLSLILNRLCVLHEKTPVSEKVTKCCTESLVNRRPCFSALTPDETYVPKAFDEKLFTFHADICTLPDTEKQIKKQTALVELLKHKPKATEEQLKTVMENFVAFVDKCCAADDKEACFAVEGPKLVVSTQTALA

SMILES	NP (Rf, BSA-impregnated NP plate) [1]	CNP (Rf, control NP plate) [2]	log k IAM [3]	k IAM [3]	k HSA [4, 13]	log k HSA ([4]; pH 7.4)	BB vivo ([5]; Table S1)	CNS+/- [6]	RP (Rf, BSA-impregnated RP plate) [7]	CRP (Rf, control RP plate) [8]	PB [9, 14]	k HSA ([4]; pH 7.4)	M/P code [10]	chromatographic logD [11]	M/P [12]	PB ([9]; Table S6, external group (n = 38), given as fraction)	BB vivo ([5]; Table S6, external group)
CN(C)CCc1c[nH]c2ccc(Cn3cncn3)cc12 [rizatriptan]	0.20	0.20	0.40	2.53	2.06	0.31	0.780	1									
CSc1ccc2c(c1)N(CCC1CCCCN1C)c1ccccc1S2 (stereo not shown) [thioridazine]	0.43	0.47	1.68	47.61	18.57	1.27	0.285		0.40	0.40							
Nc1nnc(-c2cccc(Cl)c2Cl)c(N)n1 [lamotrigine]		0.89	-0.15	0.71			0.480			0.87	0.55						
Cc1ccc(-c2nc3ccc(C)cn3c2CC(=O)N(C)C)cc1 [zolpidem]			0.42	2.60			-0.480					1.77					
O=C1CC2(CCCC2)CC(=O)N1CCCCN1CCN(c2ncccn2)CC1 [buspirone]			0.84	7.00			0.480										
O=C1Nc2ccc(Cl)cc2C(c2ccccc2Cl)=NC1O (stereo not shown) [lorazepam]			0.96	9.04			0.440				0.87	2.21					
COc1ccc2c(c1)c(CC(=O)O)c(C)n2C(=O)c1ccc(Cl)cc1 [indomethacin]			0.03	1.08			-1.260				0.97						
Cn1c(=O)c2[nH]cnc2n(C)c1=O [theophylline]			-0.94	0.12			-0.341										
CCCN1C[C@H](CSC)C[C@@H]2c3cccc4[nH]cc(c34)C[C@H]21 [pergolide]	0.47	0.48			0.07	-1.15	0.300	1	0.53	0.55	0.9						
CN(C)CCCN1c2ccccc2Sc2ccccc21 [promazine]	0.37	0.39	-1.02	0.10	8.9	0.95	0.880	1	0.51	0.51	0.94						
C[C@](N)(Cc1ccc(O)c(O)c1)C(=O)O [methyldopa]	0.37	0.38	-1.02	0.10	0.36			0	0.86	0.85	0.2		1 (Code 1 corresponds to drugs with an M/P value <0.40—completely safe)	-0.44	0.265		
C[C@H]1c2cccc(O)c2C(=O)C2=C(O)[C@]3(O)C(=O)C(C(N)=O)=C(O)[C@@H](N(C)C)[C@@H]3[C@@H](O)[C@@H]21 [doxycycline]	0.05	0.06	0.24	1.76	1.68			0	0.09	0.08	0.9		1 (Code 1 corresponds to drugs with an M/P value <0.40—completely safe)	0.23	0.34		
CCO [ethanol]																0.00	-0.16
